Legend:
[1] = tested on: secretion of ApoB in HepG2 cells; assay: Quantification of the secretion of ApoB; format: cell-based; conditions: Homo sapiens, 24 hours of incubation with test compound, apoB immunoprecipitated from medium, read-out: pIC50 values (=−log IC50 value) (converted)
Method: HepG2 cells were cultured in 24-well plates in MEM Rega 3 containing 10% fetal calf serum. At 70% confluency, the medium was changed and the test compound or carrier (DMSO, 0.4% final concentration) was added. After 24 hours of incubation, the medium was transferred to Eppendorf tubes and cleared by centrifugation. A sheep antibody directed against either apoB was added to the supernatant and the mixture was kept at 8° C. for 24 hours. Then, rabbit anti-sheep antibody was added and the immune complex was allowed to precipitate for 24 hours at 8° C. The immunoprecipitate was pelleted by centrifugation for 25 minutes at 1320 g and washed twice with a buffer containing 40 mM Mops, 40 mM NaH2PO4, 100 mM NaF, 0.2 mM DTT, 5 mM EDTA, 5 mM EGTA, 1% Triton-X-100, 0.5% sodium deoxycholate (DOC), 0.1% SDS, 0.2 μM leupeptin and 0.2 μM PMSF. Radioactivity in the pellet was quantified by liquid scintillation counting.
Resulting IC50 values are enumerated in Table C.1.

Structure (SMILES)	IC50 [1]	melting point
O=C(Nc1ccc(N2CCC(C(=O)NCc3ccccc3)CC2)cc1)c1ccccc1-c1ccc(C(F)(F)F)cc1 [Compound 1]	25.4 nM	–
CC(C)(C)c1ccc(-c2ccccc2C(=O)Nc2ccc(N3CCC(CC(=O)NCc4ccccc4)CC3)cc2)cc1 [Compound 2]	6.04 nM	–
O=C(CC1CCN(c2ccc(NC(=O)c3ccccc3-c3ccc(C(F)(F)F)cc3)cc2)CC1)NCc1ccccc1 [Compound 3]	3.56 nM	–
CCNC(=O)C1CCN(c2ccc(NC(=O)c3ccccc3-c3ccc(C(F)(F)F)cc3)cc2)CC1 [Compound 4]	8.02 nM	–
CCNC(=O)CC1CCN(c2ccc(NC(=O)c3ccccc3-c3ccc(C(F)(F)F)cc3)cc2)CC1 [Compound 5]	38.4 nM	–
CCNC(=O)C1CCN(c2ccc(NC(=O)c3ccccc3-c3ccc(C(C)(C)C)cc3)cc2)CC1 [Compound 6]	11.6 nM	–
CCNC(=O)CC1CCN(c2ccc(NC(=O)c3ccccc3-c3ccc(C(C)(C)C)cc3)cc2)CC1 [Compound 7]	2.39 nM	–
CC(C)(C)c1ccc(-c2ccccc2C(=O)Nc2ccc(N3CCC(C(=O)NCc4ccccc4)CC3)cc2)cc1 [Compound 8]	153 nM	–
COC(=O)C1CCN(c2ccc(NC(=O)c3ccccc3-c3ccc(C(F)(F)F)cc3)cc2)CC1 [Compound 9]	619 nM	–
CCOC(=O)CC1CCN(c2ccc(NC(=O)c3cccc(C)c3-c3ccc(C(F)(F)F)cc3)cc2)CC1 [Compound 10]	11.3 nM	–
COC(=O)CC1CCN(c2ccc(NC(=O)c3ccccc3-c3ccc(C(F)(F)F)cc3)cc2)CC1 [Compound 11]	12.1 nM	–
CCOC(=O)CC1CCN(c2ccc(NC(=O)c3ccc(C)cc3-c3ccc(C(F)(F)F)cc3)cc2)CC1 [Compound 12]	31.4 nM	–
CCOC(=O)CC1CCN(c2ccc(NC(=O)c3ccccc3-c3ccc(C(F)(F)F)cc3)cn2)CC1 [Compound 13]	89.5 nM	–
CCOC(=O)CC1CCN(c2ccc(NC(=O)c3cccc(C)c3-c3ccc(C(F)(F)F)cc3)cn2)CC1 [Compound 14]	9.29 nM	134 to 137 °C
CCOC(=O)CC1CCN(c2ccc(NC(=O)c3ccc(C)cc3-c3ccc(C(F)(F)F)cc3)cn2)CC1 [Compound 15]	25.6 nM	–
